Experimental data taken from US12599599B2, “Anti-inflammatory, anti-cancer, and anti-angiogenic compounds, pharmaceutical compositions, and methods of making and using thereof” (MEDICON PHARMACEUTICALS, INC., priority 2017, dated 2026).

Tests used:
A2780 xenografts = test: Subcutaneous xenografts in nude mice, platinum sensitive; type: in vivo; details: compound 5 15 mg/kg/day six days a week ip; cis-platinum 5.5 mg/kg one time a week ip
Procedure: To determine whether compound 5 is efficacious against chemotherapy-resistant ovarian cancer, three pairs of sensitive and resistant human ovarian cancer cell lines were grown as subcutaneous xenografts in nude mice and treated as summarized in FIG. 10. These cell lines were: A2780, sensitive to both cis-platinum and Adriamycin (doxorubicin); A2780cis, resistant to cis-platinum; A2780ADR, resistant to Adriamycin: HEY, sensitive to Taxol; HEY-T30, resistant to Taxol. The treatments administered were: vehicle control; compound 5, 15 mg/kg/day six days a week, ip; cis-platinum 5.5 mg/kg, one time a week ip; Adriamycin 3 mg/kg twice a week ip; and Taxol 20 mg/kg twice a week ip.

HEY-T30 xenografts = test: Synergy with cyclophosphamide, Taxol resistant subcutaneous xenografts; type: in vivo, nude mice; details: day 21; compound 5 10 mg/kg/day six days a week ip; cyclophosphamide 10 mg/kg six days a week orally; or both
[1] = tested on: SKOV-3 human ovarian cancer cells; test: Transmission electron microscopy, ER stress; type: cell-based; details: 1.5×IC50
Procedure: (§1) FIGS. 12A-12C and FIGS. 13A-13C illustrate key findings related to the mechanism of action of compound 5 against ovarian cancer. The studies shown here were performed in SKOV-3 human ovarian cancer cells. FIG. 12A: Left: Compound 5 increases the percentage of cells with acridine orange staining determined by flow cytometry (4% 4→38% after treatment with compound 5) and indicating the induction of autophagy. Right: Electron micrographs show morphological features of cells undergoing autophagy. Yellow arrowheads: vacuoles; white arrowheads: autophagosomes. […] N: nucleus; ER: endoplasmic reticulum with visible ribosomes. The left micrograph shown normal ER (circled) in a vehicle-treated cell. […] The latter finding is diagnostic of ER stress. Magnification: 6,800×. FIG. 12C: Compound 5 suppresses STAT3, mTOR and JNK activation by phosphorylation, as well as the levels of COT.

COT = test: Protein levels in SKOV-3 cells; type: cell-based, human
Procedure: as §1

GCN2 = test: Activation by phosphorylation in SKOV-3 cells; type: cell-based, human; details: 1.5×IC50
Description: (§2) FIG. 13A: Compound 5 induces the phosphorylation of eIF2α, confirming integrated stress response. p-eIF2αinduces ATF4 that suppresses 5′-cap dependent translation initiation, shown below. […] The levels of reporter proteins used in the translation assay (Pierce™ Renilla-Firefly Luciferase Dual Assay Kit; Thermo Scientific, Grand Island, NY) were normalized to the levels of intracellular FLUC-RLUC transcripts and are shown as percent of untreated control cells. RLU=Relative light units. 5′-cap dependent translation initiation was much less and occurred later. Values: Mean±SEM; *, p<0.05 and **, p<0.01 vs. control. […] Loading controls: β-actin and GADPH.

PERK = test: Activation by phosphorylation in SKOV-3 cells; type: cell-based, human; details: 1.5×IC50
Description: as §2

VEGF-A = test: Secreted VEGF in culture medium by ELISA; type: cell-based, human
Procedure: (§3) The effect of compounds 2, 5, and 6 on VEGF production was examined. For example, SKOV-3 ovarian cancer cells grown in culture were treated with compound 5 1×IC50 for up to 24 h. Secreted VEGF was assayed in the culture medium by ELISA (R&D Systems). […] For example, at 24 h, the reduction of secreted VEGF-A over the corresponding controls was: OVCAR3=100%, A2780=86%, A2780cis=100%, and A2780ADR=100%. Compound 5 suppressed VEGF-B by 90-92% compared to control. The anti-VEFG effect of Compound 5 is as strong in the drug-resistant as in the drug-sensitive cell lines.

VEGF-B = test: Secreted VEGF in culture medium by ELISA; type: cell-based, human
Procedure: as §3

[2] = tested on: Ras palmitoylation in A2780 and A2780cis ovarian cancer cells; test: Ras palmitoylation (resin capture, immunoblot); type: cell-based, human
Procedure: FIGS. 18A-18B illustrate the effect of compounds 5 and 6 on K-Ras. FIG. 18A: Compound 6 suppressed of K-Ras activation. Cells with mutant K-Ras were treated with compound 6 1.5×IC50 for the respective time periods. K-Ras activity was determined by Ras pull-down (Thermo Scientific; following vendor instructions). K-Ras activation is suppressed 37% at 1 hr and 88% at 2 hrs compared to respective controls. FIG. 18B: Compound 5 suppressed the palmitoylation of Ras in A2780 and A2780cis (resistant to cisplatin) ovarian cancer cells. Palmitoylation is detected by removing S-palmitate groups from proteins, creating new free thiols (where the palmitic acid group used to be) and capturing the previously S-palmitoylated proteins on a resin, using a commercial kit (Badrilla, Leeds, UK). Ras was detected in the eluate by immunoblot.
This effect may be particularly useful in types of cancer characterized by K-Ras mutation such as, for example, pancreatic, lung and ovarian cancer. FIG. 18A illustrates the inhibition of K-Ras activation by compound 6. […] This property of compound 5 is not shared for example by compound 6 or phosphosulindac.

[3] = Ocular pharmacokinetics and biodistribution after eye drops; type: in vivo, New Zealand rabbits; parameters: unit not given here; details: rabbit, 20% eye drops
Procedure: The pharmacokinetics and biodistribution of compounds 1, 2, and 5 in the eye of rabbits were determined. Each of these compounds was dissolved in phosphate buffered saline (PBS) and used as eye drops. The eye drops were sterilized before application to rabbits by filtration through a 0.2 μm membrane. […] The eyes were harvested and eye tissues and the lacrimal glands were dissected, homogenized and the test compounds were extracted by acetonitrile and analyzed by HPLC, as described under Compound Synthesis described herein. Compounds 1 and 2 were detected at 328 nm, and compound 5 at 260 nm. […] All three compounds can unexpectedly, readily, and rapidly reach the posterior chamber of the eye.

[4] = tested on: chicken embryo chorioallantoic membrane; test: Chicken embryo chorioallantoic membrane assay; type: in vivo

- Drug level in Vitreous [3]: 0.0
- Drug level in Ciliary body ([3]; 40 min): 0.0
- Drug level in Conjunctiva ([3]; 40 min): 33.2
- Drug level in Cornea ([3]; 40 min): 75.7
- Drug level in Iris ([3]; 40 min): 0.6
- Drug level in Lens ([3]; 40 min): 0.0
- Drug level in Retina ([3]; 40 min): 1.8
- Drug level in Sclera ([3]; 40 min): 1.3
- Drug level in Ciliary body ([3]; 60 min): 4.2
- Drug level in Conjunctiva ([3]; 60 min): 35.1
- Drug level in Cornea ([3]; 60 min): 96.7
- Drug level in Iris ([3]; 60 min): 1.9
- Drug level in Lens ([3]; 60 min): 0.0
- Drug level in Retina ([3]; 60 min): 3.4
- Drug level in Sclera ([3]; 60 min): 0.6
- Drug level in Vitreous ([3]; 60 min): 0.0
Compound: CCN(CC)CCCCNC(=O)c1ccccc1SC/C=C(\C)CC/C=C(\C)CCC=C(C)C [Compound 5]
- growth of platinum-sensitive xenografts (A2780 xenografts): suppressed the growth
- inhibition of tumor growth compared to control (HEY-T30 xenografts): 26%
- endoplasmic reticulum (ER) stress [1]: induction of endoplasmic reticulum (ER) stress
- levels of COT (COT): suppresses
- GCN2 activation by phosphorylation (GCN2): activated by phosphorylation
- PERK activation by phosphorylation (PERK): activated by phosphorylation
- reduction of secreted VEGF-A over controls (VEGF-A; A2780, 24 h): 86%
- reduction of secreted VEGF-A over controls (VEGF-A; A2780ADR, 24 h): 100%
- reduction of secreted VEGF-A over controls (VEGF-A; A2780cis, 24 h): 100%
- reduction of secreted VEGF-A over controls (VEGF-A; OVCAR3, 24 h): 100%
- suppression of secreted VEGF-A levels (VEGF-A; SKOV-3, 1×IC50, 6 hr): 80%
- suppression of secreted VEGF-A levels (VEGF-A; SKOV-3, 1×IC50, 24 hr): 100%
- suppression of VEGF-B compared to control (VEGF-B): 90-92%
- suppression of palmitoylation of Ras [2]: suppressed
- new vessels after treatment ([4]; control 58±4.9 (compound 5), 42.6±8.2 (compound 6)): 46±2.1
- reduction of formation of new vessels ([4]; in vivo): 21%
